Drawing on BindingDB's records for doi:10.1016/j.bmcl.2008.02.015 (Deltagen Research Laboratories (Former Combichem), 2008), this text covers IC50 for 38 compounds.

As usually defined, the IC50 is the concentration needed to halve the response being measured.

This experiment is described as follows: Antagonist activity at human CCR2 in THP1 cells assessed as inhibition of MCP1-induced chemotaxis.
Turning to `O=C(CNC(=O)c1cccc(C(F)(F)F)c1)N[C@@H]1CCN(Cc2ccc(OC(F)(F)F)cc2)C1`, the half-maximal inhibitory concentration (IC50) was determined as 103 nM. The figure for `CSc1ccc(CN2CC[C@@H](NC(=O)CNC(=O)c3cccc(C(F)(F)F)c3)C2)cc1` is 21 nM. The figure for `O=C(CNC(=O)c1cccc(C(F)(F)F)c1)N[C@@H]1CCN(Cc2ccccc2)C1` is 418 nM; for `COc1cc(CN2CC[C@@H](NC(=O)CNC(=O)c3cc(C(F)(F)F)ccc3N)C2)ccc1O` it is 14 nM; for `COc1ccc(CN2CC[C@@H](NC(=O)CNC(=O)c3cc(C(F)(F)F)ccc3N)C2)cc1N` it is 8.8 nM. The figure for `COc1ccc(CN2CC[C@@H](NC(=O)CNC(=O)c3cc(C(F)(F)F)ccc3N)C2)cc1` is 11 nM. As for `Nc1ccc(C(F)(F)F)cc1C(=O)NCC(=O)N[C@@H]1CCN(Cc2ccc(Br)cc2)C1`, the IC50 is 2.6 nM.

For `Nc1ccc(I)cc1C(=O)NCC(=O)N[C@@H]1CCN(Cc2ccc(Cl)cc2)C1`, the half-maximal inhibitory concentration (IC50) came out at 22 nM.

As to `Cc1ccc(CN2CC[C@@H](NC(=O)CNC(=O)c3cc(C(F)(F)F)ccc3N)C2)cc1N`, the IC50 was determined as 12 nM. Regarding `Nc1cc(CN2CC[C@@H](NC(=O)CNC(=O)c3cc(C(F)(F)F)ccc3N)C2)ccc1Cl`, the half-inhibitory concentration (IC50) came out at 11 nM. As to `Nc1ccc(C(F)(F)F)cc1C(=O)NCC(=O)N[C@@H]1CCN(Cc2ccc(O)cc2)C1`, the IC50 was determined as 5.1 nM. Turning to `C=Cc1ccc(CN2CC[C@@H](NC(=O)CNC(=O)c3cc(C(F)(F)F)ccc3N)C2)cc1`, the half-inhibitory concentration (IC50) worked out at 3.9 nM.

As to `CCc1ccc(CN2CC[C@@H](NC(=O)CNC(=O)c3cc(C(F)(F)F)ccc3N)C2)cc1`, the IC50 amounted to 0.89 nM. Regarding `Cc1ccc(CN2CC[C@@H](NC(=O)CNC(=O)c3cc(C(F)(F)F)ccc3N)C2)cc1`, the IC50 was 3.1 nM.

On to `Nc1ccc(C(F)(F)F)cc1C(=O)NCC(=O)N[C@@H]1CCN(Cc2ccc(Cl)cc2)C1`, for which the half-inhibitory concentration (IC50) worked out at 3.6 nM. Regarding `Cc1ccc(CN2CC[C@@H](NC(=O)CNC(=O)c3cccc(C(F)(F)F)c3)C2)cc1`, the concentration for half-maximal inhibition (IC50) stood at 12.4 nM. The result for `Nc1ccc(OC(F)(F)F)cc1C(=O)NCC(=O)N[C@@H]1CCN(Cc2ccc(Cl)cc2)C1` reads 43 nM; that for `Nc1ccc([N+](=O)[O-])cc1C(=O)NCC(=O)N[C@@H]1CCN(Cc2ccc(Cl)cc2)C1`, 43 nM. The figure for `O=C(CNC(=O)c1cccc([N+](=O)[O-])c1)N[C@@H]1CCN(Cc2ccc(Cl)cc2)C1` is 445 nM; for `O=C(CNC(=O)c1cccc(OC(F)(F)F)c1)N[C@@H]1CCN(Cc2ccc(Cl)cc2)C1` it is 360 nM; for `O=C(CNC(=O)c1cccc(Br)c1)N[C@@H]1CCN(Cc2ccc(Cl)cc2)C1` it is 473 nM.

With `O=C(CNC(=O)c1cccc(C(F)(F)F)c1)N[C@@H]1CCN(Cc2ccccc2-c2ccc3ccccc3c2)C1`, the half-inhibitory concentration (IC50) is 74 nM. Take `COc1cc(CN2CC[C@@H](NC(=O)CNC(=O)c3cccc(C(F)(F)F)c3)C2)ccc1O`: the concentration for half-maximal inhibition (IC50) stood at 77 nM. The result for `O=C(CNC(=O)c1cccc(C(F)(F)F)c1)N[C@@H]1CCN(Cc2ccc(F)cc2)C1` reads 121 nM; that for `O=C(CNC(=O)c1cccc(C(F)(F)F)c1)N[C@@H]1CCN(Cc2ccc(O)cc2)C1`, 5.5 nM; that for `C=Cc1ccc(CN2CC[C@@H](NC(=O)CNC(=O)c3cccc(C(F)(F)F)c3)C2)cc1`, 6.2 nM. The figure for `O=C(CNC(=O)c1cccc(C(F)(F)F)c1)N[C@@H]1CCN(Cc2ccc(Br)cc2)C1` is 21 nM; for `CCc1ccc(CN2CC[C@@H](NC(=O)CNC(=O)c3cccc(C(F)(F)F)c3)C2)cc1` it is 9.4 nM. The result for `COc1ccc(CN2CC[C@@H](NC(=O)CNC(=O)c3cccc(C(F)(F)F)c3)C2)cc1` reads 35 nM; that for `Cc1ccccc1CN1CC[C@@H](NC(=O)CNC(=O)c2cccc(C(F)(F)F)c2)C1`, 127 nM; that for `O=C(CNC(=O)c1cccc(C(F)(F)F)c1)N[C@@H]1CCN(Cc2ccccc2Cl)C1`, 418 nM.

`Cc1ccc(CN2CC[C@@H](NC(=O)CNC(=O)c3cc(C(F)(F)F)ccc3N)C2)c(C)c1`: the half-maximal inhibitory concentration (IC50) is 0.83 nM. On to `O=C(CCNC(=O)c1cccc(C(F)(F)F)c1)N[C@@H]1CCN(Cc2ccc(Cl)cc2)C1`, for which the IC50 came to 10000 nM. The result for `CC(NC(=O)c1cccc(C(F)(F)F)c1)C(=O)N[C@@H]1CCN(Cc2ccc(Cl)cc2)C1` (stereo partly drawn) reads 22000 nM. For the compound `COc1ccc(CN2CC[C@@H](NC(=O)CNC(=O)c3cc(C(F)(F)F)ccc3N)C2)cc1O`, the half-maximal inhibitory concentration (IC50) is 9.2 nM.

Turning to `Nc1cc(CN2CC[C@@H](NC(=O)CNC(=O)c3cc(C(F)(F)F)ccc3N)C2)ccc1O`, the IC50 worked out at 18 nM. The result for `Cc1ccc(CN2CC[C@@H](NC(=O)CNC(=O)c3cccc(C(F)(F)F)c3)C2)c(C)c1` [(R)-N-(2-(1-(2,4-dimethylbenzyl)pyrrolidin-3-ylamino)-2-oxoethyl)-3-(trifluoromethyl)benzamide] reads 16 nM; that for `O=C(CNC(=O)c1cccc(C(F)(F)F)c1)N[C@@H]1CCN(Cc2ccc(Cl)cc2)C1` [(R)-N-(2-(1-(4-chlorobenzyl)pyrrolidin-3-ylamino)-2-oxoethyl)-3-(trifluoromethyl)benzamide], 24 nM.
